The values below come from article PMC6631223, “Chain-Branched Polyhydroxylated Octahydro-1H-Indoles as Potential Leads against Lysosomal Storage Diseases” (Pharmaceuticals, 2019).

The target in test [1] is T1, α-Galactosidase (coffee beans) (Coffea arabica, UniProt Q42656).
T1 construct: purchased Sigma-Aldrich Co
As to the kind of experiment: Glycosidase inhibition: α-galactosidase (coffee beans). The class given is biochemical. Conditions: read-out: inhibition % at 1000 μM. From the text: (§1) The enzymes α-glucosidase (from yeast, rice), β-glucosidase (from almonds, bovine liver), α-galactosidase (from coffee beans), β-galactosidase (from bovine liver), α-mannosidase (from jack beans), β-mannosidase (from snails), α-L-fucosidase (from bovine kidney), α-L-rhamnosidase (from Penicillium decumbens), β-glucuronidases (from Escherichia coli), α,α-trehalase (from porcine kidney), amyloglucosidase (from Aspergillus niger), p-nitrophenyl glycosides, and various disaccharides were purchased from Sigma-Aldrich Co. Brush border membranes were prepared from the rat small intestine according to the method of Kessler et al., and were assayed at pH 6.8 for rat intestinal maltase using maltose. For rat intestinal glucosidases and porcine kidney trehalase activities, the reaction mixture (0.2 mL) contained 25 mM substrate and the appropriate amount of enzyme, and the incubations were performed for 10 min at 37 °C. The reaction was stopped by heating at 100 °C for 3 min. After centrifugation (600 g; 10 min), 0.035 mL of the resulting reaction mixture were added to 2.1 mL of the Glucose CII-test Wako (Wako Pure Chemical Ind., Osaka, Japan). The absorbance at 505 nm was measured to determine the amount of the released D-glucose. Other glycosidase activities were determined using an appropriate p-nitrophenyl glycoside as substrate at the optimum pH of each enzyme. The reaction mixture (0.2 mL) contained 2 mM of the substrate and the appropriate amount of enzyme. The reaction was stopped by adding 0.4 mL of 400 mM Na2CO3. The released p-nitrophenol was measured spectrometrically at 400 nm.

The target of test [2] is T2, α-Mannosidase (jack bean) (Canavalia ensiformis, UniProt C0HJB3).
T2 construct: purchased Sigma-Aldrich Co
T2 sequence (C0HJB3 1-981): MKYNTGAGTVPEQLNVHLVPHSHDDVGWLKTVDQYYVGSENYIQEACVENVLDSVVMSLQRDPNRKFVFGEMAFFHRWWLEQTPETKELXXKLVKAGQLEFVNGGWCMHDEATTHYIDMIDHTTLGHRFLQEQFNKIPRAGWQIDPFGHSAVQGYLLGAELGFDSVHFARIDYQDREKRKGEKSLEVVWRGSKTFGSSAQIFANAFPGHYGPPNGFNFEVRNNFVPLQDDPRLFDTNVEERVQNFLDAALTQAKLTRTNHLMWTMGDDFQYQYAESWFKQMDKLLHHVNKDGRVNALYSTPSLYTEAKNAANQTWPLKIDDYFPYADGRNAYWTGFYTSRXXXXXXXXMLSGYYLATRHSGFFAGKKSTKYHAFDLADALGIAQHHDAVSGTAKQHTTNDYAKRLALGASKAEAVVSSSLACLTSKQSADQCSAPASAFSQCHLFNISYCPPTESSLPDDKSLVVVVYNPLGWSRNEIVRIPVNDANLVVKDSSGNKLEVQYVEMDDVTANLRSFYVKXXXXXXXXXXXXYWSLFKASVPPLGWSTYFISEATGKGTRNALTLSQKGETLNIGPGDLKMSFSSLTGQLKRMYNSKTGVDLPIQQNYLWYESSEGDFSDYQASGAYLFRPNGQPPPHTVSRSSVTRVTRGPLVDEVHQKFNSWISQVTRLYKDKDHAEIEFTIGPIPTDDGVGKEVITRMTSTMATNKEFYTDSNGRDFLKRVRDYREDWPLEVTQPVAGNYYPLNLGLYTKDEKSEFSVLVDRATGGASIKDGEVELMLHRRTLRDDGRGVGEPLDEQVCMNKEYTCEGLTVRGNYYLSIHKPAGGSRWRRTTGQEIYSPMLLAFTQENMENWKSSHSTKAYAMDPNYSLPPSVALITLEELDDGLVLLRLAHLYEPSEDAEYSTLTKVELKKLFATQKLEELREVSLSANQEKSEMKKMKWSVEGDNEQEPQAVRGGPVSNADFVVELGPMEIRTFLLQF
As to the kind of experiment: Glycosidase inhibition: α-mannosidase (jack bean). The class given is biochemical.
Source text: as §1, with “After centrifugation (600 g; 10 min), 0.035 mL of the resulting reaction mixture were added to 2.1 mL of the Glucose CII-test Wako (Wako Pure Chemical Ind., Osaka, Japan).” left out, “The reaction mixture (0.2 mL) contained 2 mM of the substrate and the appropriate amount of enzyme. The reaction was stopped by adding 0.4 mL of 400 mM Na2CO3.” left out

Each structure is given as a SMILES string.

T1 sequence (Q42656 16-378): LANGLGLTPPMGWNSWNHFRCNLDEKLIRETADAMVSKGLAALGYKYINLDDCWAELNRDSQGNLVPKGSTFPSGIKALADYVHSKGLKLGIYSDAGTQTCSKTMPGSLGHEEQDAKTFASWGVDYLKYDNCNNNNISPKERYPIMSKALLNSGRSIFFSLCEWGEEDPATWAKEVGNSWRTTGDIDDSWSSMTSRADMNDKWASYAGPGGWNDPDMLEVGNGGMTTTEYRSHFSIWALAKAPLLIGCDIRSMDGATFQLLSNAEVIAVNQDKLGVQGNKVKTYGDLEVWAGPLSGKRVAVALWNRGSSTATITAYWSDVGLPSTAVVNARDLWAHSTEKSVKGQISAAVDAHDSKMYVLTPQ

The inhibition is the relative decrease from the control value, in per cent. With `CC[C@@H]1CN[C@H]2C[C@@H](O)[C@H](O)[C@@H](O)[C@H]12` [Compound 10, (3S,3aR,4S,5S,6R,7aS)-3-Ethyloctahydro-1H-indole-4,5,6-triol], the values for the inhibition at 1000 µM in test [1] and in test [2] were 15.9% and 0%, respectively.
Taken in the same sequence, the figures for `CC[C@H]1CN[C@H]2C[C@@H](O)[C@H](O)[C@@H](O)[C@H]12` [Compound 13, (3R,3aR,4S,5S,6R,7aS)-3-ethyloctahydro-1H-indole-4,5,6-triol] were 0% and 0%.
